# From publication PMC12362796, “Bilirubin Targeting WNK1 to Alleviate NLRP3‐Mediated Neuroinflammation” (Advanced Science, 2025)
# Assays:
# [1] = system: primary cultured hippocampal neurons; assay: MQAE intracellular chloride measurement in primary cultured hippocampal neurons; assay type: cell-based, mouse; settings: co-treatment with bilirubin, DIV8 primary hippocampal neurons, MQAE
# Text: Therefore, we hypothesized that bilirubin activation of WNK1 kinase activity might affect intracellular chloride levels. […] This was detected using the sensitive molecular probe N‐(Ethoxycarbonylmethyl)‐6‐Methoxyquinolinium Bromide (MQAE), as indicated by a reduction in MQAE fluorescence intensity (Figure 4C,E).^[ [32] ^]
# To ascertain whether bilirubin regulates chloride ions through WNK1, we generated Wnk1 gene knockout primary cultured neurons. We achieved neuron‐specific deletion of Wnk1 in hippocampal neurons by transducing primary neurons isolated from Wnk1^flox/flox embryonic mice with a lentivirus expressing hSyn‐Cre‐EGFP.^[ [33], [34] ^] […] Intracellular chloride concentration is crucial for modulating inhibitory synaptic transmission and, consequently, neuronal excitability.
# Since bilirubin‐induced activation of WNK1 kinase activity increases [Cl⁻]i in neurons, we sought to elucidate the downstream effector proteins of WNK1 that are involved in this process. Neuronal [Cl⁻]i is primarily regulated by the Cl⁻‐K⁺ symporter KCC2, with additional modulation by factors such as the Na⁺‐K⁺‐Cl⁻ co‐transporter NKCC1, GABAA receptors, and glycine receptors (GlyR), all of which contribute to [Cl⁻]i homeostasis.^[ [31] ^] To investigate the mechanism underlying bilirubin‐induced changes in [Cl⁻]i, we selectively targeted these proteins using pharmacological inhibitors (VU0463271 for KCC2, bumetanide for NKCC1, bicuculline for GABAA receptors, and strychnine for GlyR) and activated KCC2 using CLP257.^[ [35], [36] ^] […] The bilirubin‐induced effect on [Cl⁻]i was not observed in primary astrocytes (Figure S15A,B, Supporting Information) or the HEK 293T cell line (Figure S15C, Supporting Information), both of which lacked KCC2 expression (Figure S16A,B, Supporting Information), further confirming that the effects of bilirubin and WNK1 on [Cl⁻]i elevation are dependent on KCC2.
# Intracellular chloride concentration ([Cl⁻]i) was measured using the MQAE fluorescent dye (Life Technologies) following established protocols (Zhang, Lee et al. 2015). […]
# [2] = target: T1, full-length hWNK1 (Homo sapiens, UniProt Q9H4A3); assay: MicroScale Thermophoresis (MST), EGFP-tagged full-length WNK1 in HEK293T cell lysates; assay type: binding; settings: 15 min incubation, lysates of EGFP-WNK1 expressing HEK293T cells, control ligand
# T1 construct: We overexpressed full‐length WNK1 fused with Green Fluorescent Protein (GFP); expressed in transfected cells; host or cells: HEK293T
# T1 sequence (Q9H4A3 whole entry, the tested form may be a part): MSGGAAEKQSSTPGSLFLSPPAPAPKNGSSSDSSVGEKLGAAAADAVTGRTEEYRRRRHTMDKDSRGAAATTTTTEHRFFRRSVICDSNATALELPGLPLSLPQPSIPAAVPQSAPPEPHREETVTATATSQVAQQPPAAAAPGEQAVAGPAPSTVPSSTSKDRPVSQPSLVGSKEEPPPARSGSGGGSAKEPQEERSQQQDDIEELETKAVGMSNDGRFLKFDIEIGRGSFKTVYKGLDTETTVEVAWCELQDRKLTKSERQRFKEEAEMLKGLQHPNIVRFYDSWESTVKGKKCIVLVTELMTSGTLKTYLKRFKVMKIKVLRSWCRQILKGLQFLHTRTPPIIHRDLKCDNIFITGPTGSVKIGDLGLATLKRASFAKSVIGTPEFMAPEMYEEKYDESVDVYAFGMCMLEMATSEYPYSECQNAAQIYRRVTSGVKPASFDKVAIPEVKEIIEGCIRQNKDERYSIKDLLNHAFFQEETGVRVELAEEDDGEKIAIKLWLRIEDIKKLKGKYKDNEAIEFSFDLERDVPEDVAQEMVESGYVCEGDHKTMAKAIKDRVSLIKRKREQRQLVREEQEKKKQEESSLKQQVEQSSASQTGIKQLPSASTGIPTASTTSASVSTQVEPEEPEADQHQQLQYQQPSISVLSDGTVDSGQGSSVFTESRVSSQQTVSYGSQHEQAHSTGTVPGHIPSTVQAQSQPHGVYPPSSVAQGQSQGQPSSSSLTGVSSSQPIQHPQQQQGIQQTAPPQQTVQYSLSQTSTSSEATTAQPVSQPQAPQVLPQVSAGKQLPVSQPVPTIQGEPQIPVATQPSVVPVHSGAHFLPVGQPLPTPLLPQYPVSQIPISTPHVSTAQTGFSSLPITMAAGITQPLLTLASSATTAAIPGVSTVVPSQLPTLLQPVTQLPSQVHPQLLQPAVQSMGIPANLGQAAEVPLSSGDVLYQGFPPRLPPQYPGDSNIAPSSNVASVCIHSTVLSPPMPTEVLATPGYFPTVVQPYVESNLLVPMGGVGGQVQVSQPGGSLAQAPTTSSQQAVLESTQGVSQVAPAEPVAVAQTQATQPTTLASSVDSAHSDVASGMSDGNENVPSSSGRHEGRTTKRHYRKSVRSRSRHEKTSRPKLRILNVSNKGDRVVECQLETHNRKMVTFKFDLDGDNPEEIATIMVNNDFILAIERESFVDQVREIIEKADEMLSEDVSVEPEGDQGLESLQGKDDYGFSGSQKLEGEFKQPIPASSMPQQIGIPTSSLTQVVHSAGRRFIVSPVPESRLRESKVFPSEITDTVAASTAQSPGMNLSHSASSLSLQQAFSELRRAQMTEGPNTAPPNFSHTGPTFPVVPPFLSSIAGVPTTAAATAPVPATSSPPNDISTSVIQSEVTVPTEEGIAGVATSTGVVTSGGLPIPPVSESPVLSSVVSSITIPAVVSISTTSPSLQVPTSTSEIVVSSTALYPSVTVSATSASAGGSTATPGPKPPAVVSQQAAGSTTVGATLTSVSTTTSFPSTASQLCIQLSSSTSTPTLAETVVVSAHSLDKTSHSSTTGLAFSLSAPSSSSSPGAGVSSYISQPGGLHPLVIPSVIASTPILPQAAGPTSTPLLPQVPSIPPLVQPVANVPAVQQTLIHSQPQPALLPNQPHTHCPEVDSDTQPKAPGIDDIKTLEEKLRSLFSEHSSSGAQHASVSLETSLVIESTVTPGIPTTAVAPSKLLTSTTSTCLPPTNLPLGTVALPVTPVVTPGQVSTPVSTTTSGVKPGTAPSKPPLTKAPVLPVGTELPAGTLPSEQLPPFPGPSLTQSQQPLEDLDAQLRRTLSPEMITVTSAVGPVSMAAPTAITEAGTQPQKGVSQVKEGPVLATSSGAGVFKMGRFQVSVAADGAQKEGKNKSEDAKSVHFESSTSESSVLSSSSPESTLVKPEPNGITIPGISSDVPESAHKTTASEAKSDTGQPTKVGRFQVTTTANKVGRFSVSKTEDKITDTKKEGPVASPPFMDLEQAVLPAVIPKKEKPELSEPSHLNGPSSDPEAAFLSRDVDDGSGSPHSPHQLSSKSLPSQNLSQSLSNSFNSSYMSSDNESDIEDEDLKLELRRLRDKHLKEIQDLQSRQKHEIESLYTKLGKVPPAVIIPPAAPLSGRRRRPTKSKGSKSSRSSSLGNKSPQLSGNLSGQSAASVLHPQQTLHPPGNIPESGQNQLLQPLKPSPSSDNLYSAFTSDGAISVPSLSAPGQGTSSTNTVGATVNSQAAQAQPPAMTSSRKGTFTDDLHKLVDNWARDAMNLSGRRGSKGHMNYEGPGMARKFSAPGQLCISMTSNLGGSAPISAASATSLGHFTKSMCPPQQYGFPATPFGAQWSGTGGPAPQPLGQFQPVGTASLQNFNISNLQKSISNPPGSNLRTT
# Method: To validate the direct binding of bilirubin to WNK1, we performed a Microscale Thermophoresis (MST) analysis, which assesses the binding capacity of a compound by measuring the movement of proteins over a microscopic temperature gradient.^[ [26], [27] ^] We overexpressed full‐length WNK1 fused with Green Fluorescent Protein (GFP) in HEK‐293 cells, incubated the lysates with bilirubin at varying dilutions, and subjected them to precise MST measurements in capillaries. […] Furthermore, biliverdin, a structurally similar intermediate product generated before bilirubin formation, was used as a control.
# All WNK1 clones were derived from the original untagged hWNK1 cDNA (NM_018979), which was modified and subcloned into the pcDNA3.1, referred to as “full‐length WNK1” throughout this study. Truncated constructs, including 1–190aa, 191–491aa, 1–491aa, and 491–2382aa fragments, were generated by PCR using the full‐length template and subsequently ligated into linearized pcDNA3.1 vectors. WNK2 was obtained from Addgene Plasmid #24569, and WNK3 was obtained from Addgene Plasmid #81723. Both were subjected to base modifications and cloned into pcDNA3.1. The WNK4 clone was derived from hWNK4 cDNA (NM_032387.5), modified, and subcloned into the pCMV3‐C‐GFPSpark vector.
# In HEK293T cells, proteins tagged with green fluorescent protein (GFP) were expressed. […]
# [3] = system: TRPM2 channels; parameters: method as in PMID 36921602; settings: structural derivative of bilirubin; previous research; cited from earlier work
Structure (SMILES),effect on bilirubin-induced elevation of [Cl−]i [1],Kd [2],activation of TRPM2 channels [3]
"O=C1N=C(N2CCCCN2)S/C1=C\c1ccc(F)cc1O [CLP257, reference compound]",counteracted the effect of bilirubin,,
"C=CC1=C(C)/C(=C/C2=NC(=C\c3[nH]c(/C=C4\NC(=O)C(C)=C4C=C)c(C)c3CCC(=O)O)/C(CCC(=O)O)=C2C)NC1=O [Biliverdin, reference compound]",,29.7 µM,can activate
